Data published in ChEMBL document CHEMBL1201862, “PubChem BioAssay data set” (2004).
Activity calls are given as the source filed them.

What was measured:
[1] = biological target: T1, Heat shock factor protein 1 (Mus musculus, UniProt P38532); assay: inhibition of MG132-induced HSE-luciferase signal, confirmation, cell-based, NIH3T3, luminescence, dose retest (AID 2382); format: functional;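 also: NIH3T3 fibroblasts with HSF1-driven luciferase reporter stressed by proteasome inhibitor MG132; luminescence from HSF1-driven luciferase expression after 8 hours of MG132 stress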
T1 sequence (P38532 whole entry): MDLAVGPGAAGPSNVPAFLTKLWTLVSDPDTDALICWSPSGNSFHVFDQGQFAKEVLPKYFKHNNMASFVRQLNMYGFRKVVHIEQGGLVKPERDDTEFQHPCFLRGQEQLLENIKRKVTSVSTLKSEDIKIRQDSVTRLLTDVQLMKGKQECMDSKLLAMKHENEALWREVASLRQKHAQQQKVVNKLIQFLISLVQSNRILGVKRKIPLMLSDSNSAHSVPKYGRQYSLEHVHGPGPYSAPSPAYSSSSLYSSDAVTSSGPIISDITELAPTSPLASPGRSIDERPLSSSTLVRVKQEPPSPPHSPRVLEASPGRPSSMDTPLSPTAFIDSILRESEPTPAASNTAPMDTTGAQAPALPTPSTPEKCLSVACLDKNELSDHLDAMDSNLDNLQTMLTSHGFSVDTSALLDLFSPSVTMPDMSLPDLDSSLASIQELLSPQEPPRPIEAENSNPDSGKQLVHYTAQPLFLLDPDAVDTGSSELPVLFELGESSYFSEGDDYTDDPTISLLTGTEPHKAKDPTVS

[2] = growth suppression of beta-catenin-knockout colon cells, dose response, cell-based, HCT116, human colon tumor (AID 1045); format: functional;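 also: HCT116 colon tumor cells with beta catenin knocked out; cells exposed to compound for 60 hours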
[3] = growth suppression of PTEN-null colon cells, dose response, cell-based, HCT116 PTEN knockout (AID 1047); format: functional;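 also: HCT116 colon tumor cells with PTEN knocked out; cells exposed to compound for 60 hours before readout; potency for loss of cell viability measured by luminescence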
Cytochrome P450 3A4 = Cytochrome P450 3A4 (Homo sapiens, UniProt P08684);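 also: CYP3A4 tested as one member of a cytochrome P450 panel screen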
[4] = Luminescence Cell-Based Dose Confirmation HTS to Identify Inhibitors of Platelet Dense Granule Release. [Related pubchem assays: 1663 (Primary HTS), 1678 (Summary of Project)]; format: functional
[5] = biological target: Luciferin 4-monooxygenase (Photinus pyralis, UniProt P08659); assay: firefly luciferase enzyme inhibitors, dose response, biochemical, luminescence (AID 1891)
[6] = Luminescence Cell-Based Dose Retest to Confirm Inhibitors of Cancer Stem Cells. [Related pubchem assays (depositor defined):AID2717, AID2721]; format: functional; conditions: Homo sapiens
Cytochrome P450 1A2 = biological target: T2, Cytochrome P450 1A2 (Homo sapiens, UniProt P05177);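 also: PubChem cytochrome P450 panel assay, CYP1A2 panel member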
T2 sequence (P05177 whole entry): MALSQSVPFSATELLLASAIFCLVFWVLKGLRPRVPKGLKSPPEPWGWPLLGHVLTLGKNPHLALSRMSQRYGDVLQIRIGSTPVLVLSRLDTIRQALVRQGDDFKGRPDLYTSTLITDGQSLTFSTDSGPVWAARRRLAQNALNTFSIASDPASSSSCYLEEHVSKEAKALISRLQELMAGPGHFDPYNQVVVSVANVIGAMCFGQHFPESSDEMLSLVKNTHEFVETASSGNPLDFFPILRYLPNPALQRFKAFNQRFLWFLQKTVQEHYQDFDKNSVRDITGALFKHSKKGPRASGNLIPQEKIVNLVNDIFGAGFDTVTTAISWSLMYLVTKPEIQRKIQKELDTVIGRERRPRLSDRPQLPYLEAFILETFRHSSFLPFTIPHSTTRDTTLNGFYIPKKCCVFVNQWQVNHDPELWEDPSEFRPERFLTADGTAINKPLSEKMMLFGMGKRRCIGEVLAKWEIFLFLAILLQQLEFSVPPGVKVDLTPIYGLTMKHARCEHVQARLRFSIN

[7] = Luminescence Cell-Based Dose Response HTS to Identify Activators of Luciferase Translation or Activity in H4 […] Cells. [Related pubchem assays: 1829 (Project Summary), 1814 (Primary HTS)]; format: functional
H4 = assay: Luminescence Cell-Based Dose Response HTS to Identify Activators of 5'UTR Stem-Loop Driven Prion Protein mRNA Translation in H4 Neuroglioblastoma Cells. [Related pubchem assays: 1829 (Project Summary), 1814 (Primary HTS)]; format: functional; conditions: Homo sapiens
[8] = cytotoxicity toward NIH3T3 fibroblasts, dose response, counter-screen, cell-based, ATP luminescence, mouse fibroblasts (AID 2010); format: functional;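 also: cells exposed to compound for about 90 hours before reading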
INS1 = assay: beta cell apoptosis inhibitors, cytokine rescue, dose response, luminescence, retest (AID 449756); format: functional, cell-based; conditions: Rattus norvegicus;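 also: cell death triggered by IL-1 beta plus TNF-alpha plus IFN-gamma mixture; protective hits raise ATP signal compared with cytokine alone wells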
[9] = inhibitors of intracellular T. cruzi replication, confirmation, NIH3T3 host cells, beta-gal luminescence (AID 2044); format: functional, cell-based;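 also: intracellular parasites grown in NIH/3T3 mouse fibroblasts as host cells; luminescent beta-galactosidase reporter signal from transgenic T. cruzi replicating inside host cells; inhibitors lower the luminescence signal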
Cytochrome P450 2C19 = Cytochrome P450 2C19 (Homo sapiens, UniProt P33261); assay: Cytochrome panel assay with activity outcomes. Panel member name: p450-cyp2c19 Compounds with AC50 equal or less than 10 uM are considered active; format: functional; conditions: read-out: AC50
Cytochrome P450 2C19, sequence (P33261 whole entry): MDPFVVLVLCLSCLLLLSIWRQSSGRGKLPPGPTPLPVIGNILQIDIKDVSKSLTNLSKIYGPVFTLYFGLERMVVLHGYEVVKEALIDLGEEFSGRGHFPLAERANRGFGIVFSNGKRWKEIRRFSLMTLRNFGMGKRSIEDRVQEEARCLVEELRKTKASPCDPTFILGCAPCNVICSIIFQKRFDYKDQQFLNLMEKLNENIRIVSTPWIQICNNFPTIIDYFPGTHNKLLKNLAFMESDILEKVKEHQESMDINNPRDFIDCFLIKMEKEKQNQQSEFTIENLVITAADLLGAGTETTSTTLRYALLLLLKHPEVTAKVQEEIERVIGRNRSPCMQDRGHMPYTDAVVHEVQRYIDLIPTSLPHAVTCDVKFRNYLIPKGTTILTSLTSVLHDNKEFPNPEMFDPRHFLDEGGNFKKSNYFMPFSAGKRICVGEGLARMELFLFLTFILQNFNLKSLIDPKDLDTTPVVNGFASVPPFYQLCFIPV

Cytochrome P450 3A4, sequence (P08684 whole entry): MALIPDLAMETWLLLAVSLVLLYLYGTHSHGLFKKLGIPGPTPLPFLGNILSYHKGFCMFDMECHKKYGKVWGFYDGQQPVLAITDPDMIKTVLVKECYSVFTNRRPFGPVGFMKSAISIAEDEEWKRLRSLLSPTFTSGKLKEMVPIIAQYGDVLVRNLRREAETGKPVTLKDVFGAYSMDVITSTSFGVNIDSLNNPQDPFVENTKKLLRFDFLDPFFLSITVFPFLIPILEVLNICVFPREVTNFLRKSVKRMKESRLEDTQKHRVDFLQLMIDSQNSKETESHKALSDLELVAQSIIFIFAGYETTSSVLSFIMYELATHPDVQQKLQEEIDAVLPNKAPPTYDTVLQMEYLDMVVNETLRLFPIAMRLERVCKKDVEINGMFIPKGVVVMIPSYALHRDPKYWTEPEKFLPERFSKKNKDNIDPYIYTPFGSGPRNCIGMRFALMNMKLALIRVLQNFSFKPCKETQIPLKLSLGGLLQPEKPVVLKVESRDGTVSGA
Luciferin 4-monooxygenase, sequence (P08659 whole entry): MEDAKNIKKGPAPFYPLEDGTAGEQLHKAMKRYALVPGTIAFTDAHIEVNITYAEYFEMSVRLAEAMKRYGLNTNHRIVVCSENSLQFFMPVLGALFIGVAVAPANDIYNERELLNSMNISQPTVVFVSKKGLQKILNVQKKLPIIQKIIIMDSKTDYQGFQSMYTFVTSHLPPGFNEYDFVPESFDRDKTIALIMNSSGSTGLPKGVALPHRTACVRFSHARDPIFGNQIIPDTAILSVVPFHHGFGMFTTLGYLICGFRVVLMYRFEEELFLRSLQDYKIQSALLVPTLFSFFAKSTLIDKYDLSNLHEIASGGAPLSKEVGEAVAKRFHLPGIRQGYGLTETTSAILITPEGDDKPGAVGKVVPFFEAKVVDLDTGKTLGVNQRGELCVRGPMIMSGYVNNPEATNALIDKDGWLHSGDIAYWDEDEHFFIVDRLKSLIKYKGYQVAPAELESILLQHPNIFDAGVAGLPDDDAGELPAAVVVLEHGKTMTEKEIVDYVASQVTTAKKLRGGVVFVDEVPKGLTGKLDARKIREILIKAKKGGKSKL

## Fc1ccc(-c2nc3c(-c4ccc(Cl)cc4)cnn3cc2CCN2CCOCC2)cc1
[1]
  EC50: > 195 µM (not active)

## Fc1cnc(N2CCc3ccccc32)nc1N1CCc2ccccc21
[2]
  EC50: 25.5 µM (active)
[3]
  EC50: 30 µM (active)

## Oc1nc2cc3c(cc2cc1C(c1nnnn1C1CCCC1)N1CCSCC1)OCCO3 (centres undefined)
[2]
  EC50: 94.3 µM (active)
[3]
  EC50: 28.9 µM (active)

## COc1cccc(Nc2ncc3nc(CCc4ccccc4)c(=O)n(CCC#N)c3n2)c1
Cytochrome P450 3A4
  AC50: 2 µM (inconclusive)

## Cc1ccc(-c2nc3cccnc3o2)cc1NC(=O)COc1ccc(Cl)cc1C
[2]
  EC50: 14.6 µM (active)
[3]
  EC50: 5.15 µM (active)

## COc1ccc(CCn2c(=N)c(C(=O)NCC3CCCO3)cc3c(=O)n4ccccc4nc32)cc1OC (centres undefined)
[4]
  EC50: > 112 µM (not active)
[5]
  EC50: > 112 µM (not active)

## COc1cccc(-c2nnc(-c3ccco3)o2)c1
[4]
  EC50: 40.9 µM (active)
[5]
  EC50: > 112 µM (not active)

## COc1ccc(NC(=O)CN(C)CC(=O)Nc2ccc3c(c2)CCC3)cc1
[1]
  EC50: > 195 µM (not active)

## Cc1ccc(C(=O)Nc2ccc(Br)c(C(F)(F)F)c2)cc1
[2]
  EC50: 23.8 µM (active)
[3]
  EC50: 19.7 µM (active)

## CCCCC(CC)CN1C(=O)/C(=C/c2c[nH]nc2-c2ccccc2)SC1=S (centres undefined)
[2]
  EC50: 21.1 µM (active)
[3]
  EC50: 21.3 µM (active)

## O=C(Oc1ccccc1Cl)c1ccc(-n2cncn2)nc1
[1]
  EC50: > 195 µM (not active)

## Cc1ccc(C)c(Nc2nc(N)c3ccccc3n2)c1
[4]
  EC50: 11 µM (active)
[5]
  EC50: 12.2 µM (active)

## COc1cc([C@@H]2c3cc4c(cc3[C@@H](O)[C@H]3COC(=O)[C@H]23)OCO4)cc(OC)c1O[Si](C)(C)C(C)(C)C
[6]
  AC50: 3.64 µM (active)

## COCCNc1ncnc2ccc(-c3ccccc3CN(C)C)cc12
Cytochrome P450 1A2
  AC50: 25.1 µM (inconclusive)
Cytochrome P450 3A4
  AC50: 31.6 µM (inconclusive)

## CC(C)(C)NC(=O)Cn1nnc(-c2ccc(OCc3c(F)cccc3Cl)cc2)n1
[6]
  AC50: 1.33 µM (active)

## Cc1ccc(Oc2nc(CN3CCOCC3)nc3sc4c(c23)CCC(C)C4)cc1C (centres undefined)
[6]
  AC50: 6.74 µM (active)
[1]
  EC50: > 195 µM (not active)

## O=C1NC(=O)N(CCC2=CCCCC2)C(=O)/C1=C\NNc1ccccc1
[6]
  AC50: 2.46 µM (active)

## CCOc1ccc(C(=O)CSc2nnc3ccccn23)cc1
[7]
  EC50: 35.7 µM (active)
H4
  EC50: > 120 µM (not active)

## Cc1ccc2nc(-c3ccc(NS(=O)(=O)c4c(C)n(C)c(=O)n(C)c4=O)cc3)sc2c1
[7]
  EC50: 2.06 µM (active)

## COc1ccc(NCc2nnc(SCC(=O)Nc3cc(C(F)(F)F)ccc3Cl)o2)cc1
[1]
  EC50: > 195 µM (not active)

## NC(=O)C1CCN(CC(=O)Nc2nc(-c3ccccc3)cs2)CC1
[1]
  EC50: > 195 µM (not active)

## CCN(CC)C(=O)CN1C(=O)/C(=C/c2ccccc2)SC1=S
[1]
  EC50: > 195 µM (not active)

## C=C(C)COc1ccc2c(C)c(CC(=O)OC)c(=O)oc2c1C
[2]
  EC50: 31.9 µM (active)
[3]
  EC50: 81.2 µM (active)

## Cc1nnc2sc(-c3ccc(-c4ccc(Cl)c(C(F)(F)F)c4)o3)nn12
[4]
  EC50: > 112 µM (not active)
[5]
  EC50: > 112 µM (not active)

## O=C(O)CC(NC(=O)C(c1ccccc1)c1ccccc1)c1ccco1 (centres undefined)
[4]
  EC50: > 112 µM (not active)
[5]
  EC50: > 112 µM (not active)

## CCCCn1c(=O)c(C(=O)NCc2ccc(Cl)cc2)c(O)c2ccccc21
[6]
  AC50: 5.25 µM (active)

## Nn1c(SCC(=O)NC2CCCC2)nnc1-c1ccccc1F
[1]
  EC50: > 195 µM (not active)

## CC(C)NC(=O)N1CCCC2(CCN(C(=O)c3ccco3)CC2)C1
Cytochrome P450 3A4
  AC50: 25.1 µM (inconclusive)

## CC1CCCN(C(=O)C2(NC(=O)Nc3cccc(F)c3)CCCCC2)C1 (centres undefined)
[1]
  EC50: > 195 µM (not active)

## CC(C)(C)C(=O)OCc1nc(-c2ccc3c(c2)OCCO3)cs1
[1]
  EC50: > 195 µM (not active)

## O=C(COc1ccc(Cl)cc1Cl)NN=C1c2ccccc2-c2ccccc21
[2]
  EC50: 6.99 µM (active)
[3]
  EC50: 7.45 µM (active)

## Cc1c(C=C2C(=O)N(C)C(=O)N(C)C2=O)c(=O)n(-c2ccccc2)n1C
[1]
  EC50: > 195 µM (not active)

## COc1ccc(-c2nc3scc(-c4ccc(OC)c(OC)c4)c3c(=O)o2)cc1
[2]
  EC50: 16.4 µM (active)
[3]
  EC50: 24.7 µM (active)

## CCCn1c(SCC(=O)N2CCCC(C)C2)nnc1-c1ccccn1 (centres undefined)
[4]
  EC50: > 112 µM (not active)
[5]
  EC50: > 112 µM (not active)

## Cc1ccc2[nH]c(/C(C#N)=C\c3ccc(Oc4ccc([N+](=O)[O-])cn4)cc3)nc2c1
[2]
  EC50: 46.9 µM (active)
[3]
  EC50: 76.4 µM (active)

## CCOc1ccc(C2=NN=C(c3ccc(N4CCOCC4)cc3)c3ccccc3N2)cc1
[7]
  EC50: 30.1 µM (active)
H4
  EC50: > 120 µM (not active)

## O=C(CC1Nc2ccccc2NC1=O)Nc1ccccc1NC(=O)CC1Nc2ccccc2NC1=O (centres undefined)
[1]
  EC50: > 195 µM (not active)

## O=C(CSc1nc(-c2ccccc2)cc(C(F)(F)F)n1)c1cccc([N+](=O)[O-])c1
[6]
  AC50: 5.41 µM (active)

## CCOc1ccc(NC(=O)Nc2cc(C)ccc2F)cc1
[4]
  EC50: 1.81 µM (active)
[5]
  EC50: 1.02 µM (active)

## COc1cc(CNc2ccc3[nH]c(O)nc3c2)ccc1OCC(=O)NC(C)(C)C
[4]
  EC50: 12.4 µM (active)

## CCCn1c(C)cc(=O)c2cc(NC(=O)c3cnccn3)ccc21
[2]
  EC50: 19.9 µM (active)
[3]
  EC50: 33.7 µM (active)

## Cc1nc(SCC(=O)NCC2CCCO2)nc(O)c1C (centres undefined)
[1]
  EC50: > 195 µM (not active)

## Cc1occc1-c1nnc(SCC(=O)Nc2ccccc2)n1C
[1]
  EC50: > 195 µM (not active)

## CN(C)c1ccc(CNC(=O)c2cc(S(=O)(=O)N3CCOCC3)cn2C)cc1
[4]
  EC50: > 112 µM (not active)
[5]
  EC50: > 112 µM (not active)

## COc1ccc(-c2nc(NC(=O)c3cc(C(C)(C)C)nn3C)sc2C)cc1
[8]
  EC50: 8.58 µM (active)
[6]
  AC50: 7.12 µM (active)
INS1
  AC50: 10.2 µM (active)
[9]
  EC50: 1.76 µM (active)

## Cn1c(SCC(=O)N=Nc2c(O)[nH]c3ccccc23)nc2ccccc21
[4]
  EC50: > 112 µM (not active)
[5]
  EC50: > 112 µM (not active)

## [O-]/[N+](=C/c1ccc(F)cc1)c1ccc(Cl)cc1
[4]
  EC50: > 112 µM (not active)
[5]
  EC50: > 112 µM (not active)

## O=C(/C=C/c1ccc(Br)o1)NCCCN1CCOCC1
[1]
  EC50: > 195 µM (not active)

## O=C(c1ccccc1-c1nc(-c2ccccc2)no1)N1CCOCC1
Cytochrome P450 1A2
  AC50: 39.8 µM (inconclusive)
Cytochrome P450 3A4
  AC50: 28.2 µM (inconclusive)

## CCOC(=O)N1CCC(NC(=O)c2cc(S(=O)(=O)N3CCCC3)cn2C)CC1
Cytochrome P450 3A4
  AC50: 14.1 µM (inconclusive)
Cytochrome P450 2C19
  AC50: 8.91 µM (inconclusive)

## COc1ccccc1N1CCN(CCn2c(=O)[nH]c3c([nH]c4ccccc43)c2=O)CC1
Cytochrome P450 1A2
  AC50: 39.8 µM (inconclusive)
Cytochrome P450 3A4
  AC50: 15.8 µM (inconclusive)

## O=S(=O)(N/N=C1/CC(c2ccccc2)Oc2ccccc21)c1ccc(Br)cc1 (centres undefined)
[6]
  AC50: 2.79 µM (active)

## CN(C)c1ccc(/C=N/NC(=O)C2COc3ccccc3O2)o1 (centres undefined)
[1]
  EC50: > 195 µM (not active)

## COc1ccc(/C=N/Nc2ncccc2[N+](=O)[O-])c(OC)c1
[4]
  EC50: 2.57 µM (active)
[5]
  EC50: 2.42 µM (active)

## CCc1ccc(/C=N/NC(=O)c2nnn(-c3nonc3N)c2CN2CCOCC2)cc1
[4]
  EC50: 52.9 µM (active)
[5]
  EC50: > 112 µM (not active)

## COc1ccccc1N1CCN(CCN2C(=O)c3ccccc3C(C)(C)C2=O)CC1
Cytochrome P450 1A2
  AC50: 39.8 µM (inconclusive)
Cytochrome P450 3A4
  AC50: 15.8 µM (inconclusive)
